Data from ChEMBL document CHEMBL3044686, “Synthesis and biological evaluation of some new quinazolin-4(3H)-ones derivatives as anticonvulsants” (Med Chem Res, 2013).
Activity calls are given as the source filed them. The calls are words filed in the database; no cut-off is given here.

Key:
Mus musculus [1] = organism: Mus musculus; assay: Toxicity in albino CF-1 Mus musculus (mouse) assessed as minimum dose required to induce motor impairment in half or more animals measured after 4 hr by rotarod test; assay type: organism-based; conditions: in vivo
Mus musculus [2] = assay: Anticonvulsant activity in albino CF-1 Mus musculus (mouse) assessed as protection against maximal electroshock-induced seizures at 300 mg/kg measured after 0.5 hr by electroshock seizure method; assay type: functional, organism-based; design: dose 300 mg/kg
Mus musculus [3] = assay: Toxicity in albino CF-1 Mus musculus (mouse) assessed as motor impairment at 300 mg/kg measured after 0.5 hr by rotarod test; assay type: organism-based; design: dose 300 mg/kg; conditions: in vivo
Mus musculus [4] = organism: Mus musculus; assay: Anticonvulsant activity in albino CF-1 Mus musculus (mouse) assessed as minimum dose required to protect half or more animals against maximal electroshock-induced seizures measured after 4 hr by electroshock seizure method; assay type: functional; conditions: albino CF-1, 4 h, read-out: MED
Mus musculus [5] = organism: Mus musculus; assay: Anticonvulsant activity in albino CF-1 Mus musculus (mouse) assessed as minimum dose required to protect half or more animals against maximal electroshock-induced seizures measured after 0.5 hr by electroshock seizure method; assay type: functional; conditions: albino CF-1, 0.5 h, read-out: MED
Mus musculus [6] = organism: Mus musculus; assay: Toxicity in albino CF-1 Mus musculus (mouse) assessed as minimum dose required to induce motor impairment in half or more animals measured after 0.5 hr by rotarod test; assay type: organism-based; conditions: in vivo
Mus musculus [7] = assay: Induction of CNS depressant activity in albino CF-1 Mus musculus (mouse) assessed as increase in immobility at 100 mg/kg, ip measured after 30 min by Porsolt's force swim pool method; assay type: organism-based, Central nervous system; design: dose 100 mg/kg, route intraperitoneal; conditions: in vivo, 0.5 h
Mus musculus [8] = assay: Induction of CNS depressant activity in albino CF-1 Mus musculus (mouse) assessed as duration of immobility at 100 mg/kg, ip measured after 30 min by Porsolt's force swim pool method (reference value: 52.7 +/-0.70 secs); assay type: organism-based, Central nervous system; design: dose 100 mg/kg, route intraperitoneal; conditions: in vivo, 0.5 h
Mus musculus [9] = assay: Toxicity in albino CF-1 Mus musculus (mouse) assessed as motor impairment at 300 mg/kg measured after 4 hr by rotarod test; assay type: organism-based; design: dose 300 mg/kg; conditions: in vivo

Row | SMILES | MED (Mus musculus [1]) | Activity (Mus musculus [2]) | Activity (Mus musculus [3]) | minimal effective dose (Mus musculus [4]) | minimal effective dose (Mus musculus [5]) | MED (Mus musculus [6]) | Activity (Mus musculus [7]) | Time (Mus musculus [8]) | Activity (Mus musculus [9])
1 | O=c1c2ccccc2nc(-c2ccccc2)n1/N=C/c1cccc(OCc2ccccc2)c1 | 300 mg/kg | inactive | Non-toxic | 300 mg/kg |  |  |  |  | 
2 | NC(=O)N1c2ccccc2C=Cc2ccccc21 [CARBAMAZEPINE] | 100 mg/kg |  |  | 30 mg/kg | 30 mg/kg | 300 mg/kg | 56.35% | 82.4 s | 
3 | C=CCCOc1cccc(/C=N/n2c(-c3ccccc3)nc3ccccc3c2=O)c1 |  |  | Non-toxic | 100 mg/kg | 300 mg/kg |  | 110.81% | 111.1 s | Non-toxic
4 | O=c1c2ccccc2nc(-c2ccccc2)n1/N=C/c1cccc(O)c1 |  | inactive | Non-toxic | 100 mg/kg |  |  |  |  | Non-toxic
5 | CC(C)Oc1cccc(/C=N/n2c(-c3ccccc3)nc3ccccc3c2=O)c1 |  |  | Non-toxic | 300 mg/kg | 300 mg/kg |  |  |  | Non-toxic
6 | C=CCOc1cccc(/C=N/n2c(-c3ccccc3)nc3ccccc3c2=O)c1 |  |  | Non-toxic | 300 mg/kg | 300 mg/kg |  |  |  | Non-toxic
7 | COc1cccc(/C=N/n2c(-c3ccccc3)nc3ccccc3c2=O)c1 |  | inactive | Non-toxic | 100 mg/kg |  |  |  |  | Non-toxic
8 | CCCCOc1cccc(/C=N/n2c(-c3ccccc3)nc3ccccc3c2=O)c1 |  |  | Non-toxic | 100 mg/kg | 300 mg/kg |  |  |  | Non-toxic
9 | CCOc1cccc(/C=N/n2c(-c3ccccc3)nc3ccccc3c2=O)c1 |  |  | Non-toxic | 100 mg/kg | 100 mg/kg |  | 29.6% | 68.3 s | Non-toxic
10 | CCCOc1cccc(/C=N/n2c(-c3ccccc3)nc3ccccc3c2=O)c1 |  |  | Non-toxic | 30 mg/kg | 100 mg/kg |  | 52.18% | 80.2 s | Non-toxic
11 | O=C1NC(=O)C(c2ccccc2)(c2ccccc2)N1 [PHENYTOIN] | 100 mg/kg |  | Non-toxic | 30 mg/kg | 30 mg/kg |  |  |  | 
